# Experimental data from BindingDB's records for doi:10.1007/s002100000299 (University of Oslo, 2001).
# Several values for one entry are separate records, joined by “and”; a condition that tells them apart may be missing. Identical values can stand only once.
# Biological target: 5-hydroxytryptamine receptor 4 (Homo sapiens, UniProt Q13639)
# Sequence (Q13639 whole entry): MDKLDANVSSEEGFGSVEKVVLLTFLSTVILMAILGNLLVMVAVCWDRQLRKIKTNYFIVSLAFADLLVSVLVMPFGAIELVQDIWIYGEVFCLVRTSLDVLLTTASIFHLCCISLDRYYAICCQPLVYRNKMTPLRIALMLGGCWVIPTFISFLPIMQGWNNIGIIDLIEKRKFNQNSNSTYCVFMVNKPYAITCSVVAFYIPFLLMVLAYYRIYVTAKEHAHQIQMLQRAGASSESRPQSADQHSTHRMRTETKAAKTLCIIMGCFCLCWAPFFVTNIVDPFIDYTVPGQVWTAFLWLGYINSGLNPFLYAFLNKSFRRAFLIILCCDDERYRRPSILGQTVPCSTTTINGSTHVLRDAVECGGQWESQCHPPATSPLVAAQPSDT
row,Structure (SMILES),Ki
1,CN1C2CCC1CC(OC(=O)c1c[nH]c3ccccc13)C2 (stereo not given),158 nM and 79.4 nM
2,O=C(OCCN1CCCCC1)c1c[nH]c2ccccc12 [CAS_135938-17-9],2 nM and 1.3 nM
3,Cn1cc(C(=O)OCC2CCN(CCNS(C)(=O)=O)CC2)c2ccccc21 [GR 113808],0.079 nM and 0.05 nM
4,NCCc1c[nH]c2ccc(C(N)=O)cc12 [[3H]-5-carboxamidotryptamine],> 10000 nM
5,"COc1ccc2[nH]cc(CCN)c2c1 [tryptamine, 5-Methoxy]",316 nM and 251 nM
